Earlier results in patent US20170369677A1, “MATERIALS FREE OF ENDOCRINE DISRUPTIVE ACTIVITY” (CertiChem, Inc., priority 2006, published 2017).
Where two headings read alike, the source gives them in different places.

Legend:
[1] = recommended daily dietary allowance for these antioxidants
[2] = for Carcinogenic or Other Toxic Effects: common pigments used in plastic formulations, Table P-3
ER = conditions: statement in words
[3] = statement in words
[4] = tested on: snails, fish, frogs, and rodents

Compound	ADI [1] [mg/kg]	estrogenic or androgenic activity [3]	other results
COc1ccc(O)c(C(C)(C)C)c1 [BHA, Butylated hydroxyanisole]	0 to 0.5		
[C-]#N.[C-]#N.[C-]#N.[C-]#N.[C-]#N.[C-]#N.[Fe+2].[Fe+3].[NH4+] [Ferric amonimum, ferric amonimum ferrocyanide]			Carcinogenic or Other Toxic Effects [2]: Yes
CC(C)(C)c1cc(Cc2cc(C(C)(C)C)c(O)c(C(C)(C)C)c2)cc(C(C)(C)C)c1O [4,4′-methylenebis (2,6-di-t-butylphenol)]			ER binding activity observed (ER): lack of binding activity
C=CCl [Vinylchloride]			toxic effects stated in text ([2]; statement in words): other toxic effects
CC(C)CCC[C@@H](C)[C@H]1CC[C@H]2[C@@H]3CC=C4C[C@@H](O)CC[C@]4(C)[C@H]3CC[C@]12C [Cholesterol]		little or no known estrogenic or androgenic activity	
C=C [Ethylene]		no known estrogenic activity or other deleterious effects	
CCCOC(=O)c1cc(O)c(O)c(O)c1 [Propyl gallate]	0 to 2.5		
Cc1cc(C(C)(C)C)c(O)c(C(C)(C)C)c1 [BHT, Butylated hydroxytoulene]	0 to 0.125	has estrogenic activity	
CC(C)(c1ccc(O)cc1)c1ccc(O)cc1 [Bisphenol A]		deleterious estrogenic activity	levels in human umbilical cords: 0.2 to 2 µg/kg; dose at which deleterious developmental changes have been reported [4]: 0.5 to 2 µg/kg/day; dose at which deleterious developmental changes have been reported ([4]; listed as bisphenol A): 0.5 to 2 µg/kg/day
C[C@]12CCC(=O)C[C@@H]1CC[C@@H]1[C@@H]2CC[C@]2(C)[C@@H](O)CC[C@@H]12 [DHT, 5a-dihydrotestosterone, reference compound]		strong androgen	
Tocopherols	0.15 to 2		
CC(=O)[C@H]1CC[C@H]2[C@@H]3CCC4=CC(=O)CC[C@]4(C)[C@H]3CC[C@]12C [progesterone]		androgenic, but no known estrogenic, activity	
CC(C)(C)c1cc(O)ccc1O [TBHQ, Tert-Butylhydroquinone]	0 to 0.2		
C[C@]12CC[C@@H]3c4ccc(O)cc4CC[C@H]3[C@@H]1CC[C@@H]2O [17β-estradiol (E2), 17β-estradiol, reference compound]		strong estrogen	
O=C(O)c1ccc(C(=O)O)cc1 [Terephthalic, terephthalic acid]		deleterious estrogenic activity	
[O]=[Mo](=[O])([O-])[O-].[Pb+2] [Lead molybdate]			Carcinogenic or Other Toxic Effects [2]: Yes
